Literature values as cited in patent US20150182479A1, “Method of delivering agmatine for medical treatment” (TOPAZ VENTURES, INC., priority 2013, published 2015).

How the values were obtained:
mouse = settings: FST; for effect on antidepressant like effect of fluoxetine or paroxetine: agonists ip, agmatine-raising drugs icv; for effect of prior administration on antidepressant like effect of paroxetine and fluoxetine: paroxetine 10 mg/kg ip, fluoxetine 20 mg/kg ip
mice = settings: for effect on morphine analgesia: agmatine 10 mg/kg i.p. 30 min before morphine s.c.; for effect on oxycodone analgesia: agmatine 10 mg/kg i.p. 30 min before oxycodone s.c.
thermal nociception = settings: for effect of antagonist on response-latency enhancement by WIN 55212-2: WIN 55212-2 2 mg/kg, SR 141716A 5 mg/kg i.p., idazoxan 2 and 5 mg/kg, yohimbine 5 mg/kg

Compound: c1ccc2oc(C3=NCCN3)cc2c1 [2-(2-benzofuranyl)-2-imidazoline]
- effect on antidepressant like effect of fluoxetine or paroxetine (mouse): potentiated

Compound: Cc1noc(NS(=O)(=O)c2cccc3c(N(C)C)cccc23)c1C [BMS 182874]
- tail-flick latency, drug alone (mice; 360-min observation period): did not produce any change
- effect of pretreatment on analgesic effect produced by agmatine alone (mice; tail-flick, mice): did not increase
- effect on agmatine-induced potentiation of morphine and oxycodone analgesia (mice; tail-flick, mice): not altered
- effect on morphine analgesia (mice; tail-flick, mice): potentiates
- effect on oxycodone analgesia (mice; tail-flick, mice): potentiates

Compound: N=C(N)NCCC[C@@H](N)C(=O)O [D-arginine]
- effect of prior administration on antidepressant like effect of paroxetine and fluoxetine (mouse): blocked

Compound: N=C(N)NCCC[C@H](N)C(=O)O [L-arginine]
- effect on antidepressant like effect of fluoxetine or paroxetine (mouse): potentiated

Compound: Cc1c(C(=O)NN2CCCCC2)nn(-c2ccc(Cl)cc2Cl)c1-c1ccc(Cl)cc1 [SR 141716A]
- effect of antagonist on response-latency enhancement by WIN 55212-2 (thermal nociception): blocked

Compound: N=C(N)NN [aminoguanidine]
- effect on antidepressant like effect of fluoxetine or paroxetine (mouse): potentiated

Compound: NC(N)=NCCCCN=C(N)N [arcaine]
- effect on antidepressant like effect of fluoxetine or paroxetine (mouse): potentiated

Compound: Clc1cccc(Cl)c1N=C1NCCN1 [clonidine]
- effect on antidepressant like effect of fluoxetine or paroxetine (mouse): potentiated
- effect on morphine analgesia (mice; tail-flick, mice): potentiate
- effect on oxycodone analgesia (mice; tail-flick, mice): potentiate

Compound: CCC1(C2=NCCN2)Cc2ccccc2O1 (stereo not drawn) [efaroxan]
- effect of prior administration on antidepressant like effect of paroxetine and fluoxetine (mouse): blocked

Compound: c1ccc2c(c1)OCC(C1=NCCN1)O2 (stereo not drawn) [idazoxan]
- effect of prior administration on antidepressant like effect of paroxetine and fluoxetine (mouse): blocked
- effect of antagonist on response-latency enhancement by combination of WIN 55212-2 and agmatine (thermal nociception; WIN 55212-2 2 mg/kg and agmatine, yohimbine 5 mg/kg i.p.): blocked
- effect of antagonist on response-latency enhancement by WIN 55212-2 (thermal nociception): attenuated
- effect on BMS 182874-induced potentiation of oxycodone analgesia (mice; tail-flick, mice): blocked
- effect on agmatine-induced potentiation of morphine and oxycodone analgesia (mice; tail-flick, mice): blocked

Compound: COc1nc(C)nc(Cl)c1N=C1NCCN1 [moxonidine]
- effect on antidepressant like effect of fluoxetine or paroxetine (mouse): potentiated

Compound: COC(=O)[C@@H]1[C@H]2C[C@H]3c4[nH]c5ccccc5c4CCN3C[C@@H]2CC[C@@H]1O [yohimbine]
- effect of antagonist on response-latency enhancement by WIN 55212-2 (thermal nociception): not affected
- effect on BMS 182874-induced potentiation of morphine analgesia (mice; tail-flick, mice): not affected
- effect on BMS 182874-induced potentiation of oxycodone analgesia (mice; tail-flick, mice): not affected
- effect on agmatine-induced potentiation of morphine and oxycodone analgesia (mice; tail-flick, mice): blocked

Compound: (−)-cis 3-(2-hydroxy-4-(1,1-dimethylheptyl)phenyl)-trans-4-(3-hydroxypropyl) cyclohexanol [CP55,940]
- hot-plate response latency, drug given alone (thermal nociception; i.p., WIN 55212-2 or CP55,940 1, 2 or 3 mg/kg, agmatine 50 or 100 mg/kg): increased

Compound: difluoromethyl ornithine
- effect on antidepressant like effect of fluoxetine or paroxetine (mouse): potentiated
